PubChem BioAssay AID330 (DTP/NCI, 2004)
Where “and” joins values, the source holds several entries; their conditions need not be identical. Equal values may be shown once. Inconclusive results and toxic doses are left out.

Tested on: P388 leukemia ip, CD2F1 mice, survival T/C
Experiment: NCI In Vivo Anticancer Drug Screen. Data for tumor model P388 Leukemia (intraperitoneal) in CD2F1 (CDF1) mice
Details: endpoint: median survival time, higher = longer survival
Outline: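 Mice carrying the transplanted tumor received test compound or vehicle. Survival was recorded in each group, and the value is the treated-group measurement divided by that of the vehicle-treated control group.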

[1] = dose: 50.0 mg/kg/injection, schedule: Q01DX009 (ip), vehicle: Klucel (hydroxypropylcellulose) (HPC)
[2] = dose: 100.0 mg/kg/injection, schedule: Q01DX009 (ip), vehicle: Klucel (hydroxypropylcellulose) (HPC)
[3] = dose: 200.0 mg/kg/injection, schedule: Q01DX009 (ip), vehicle: Klucel (hydroxypropylcellulose) (HPC)
[4] = dose: 100.0 mg/kg/injection, schedule: Q04DX003 (ip), vehicle: saline with Tween-80
[5] = dose: 200.0 mg/kg/injection, schedule: Q04DX003 (ip), vehicle: saline with Tween-80
[6] = dose: 400.0 mg/kg/injection, schedule: Q04DX003 (ip), vehicle: saline with Tween-80
[7] = dose: 50.0 mg/kg/injection, schedule: Q01DX009 (ip), vehicle: saline with Tween-80
[8] = dose: 100.0 mg/kg/injection, schedule: Q01DX009 (ip), vehicle: saline with Tween-80
[9] = dose: 200.0 mg/kg/injection, schedule: Q01DX009 (ip), vehicle: saline with Tween-80
[10] = dose: 50.0 mg/kg/injection, schedule: Q01DX009 (ip), vehicle: saline
[11] = dose: 100.0 mg/kg/injection, schedule: Q01DX009 (ip), vehicle: saline
[12] = dose: 200.0 mg/kg/injection, schedule: Q01DX009 (ip), vehicle: saline
[13] = dose: 400.0 mg/kg/injection, schedule: Q01DX009 (ip), vehicle: saline with Tween-80
[14] = dose: 60.0 mg/kg/injection, schedule: Q01DX005 (ip), vehicle: saline with Tween-80
[15] = dose: 120.0 mg/kg/injection, schedule: Q01DX005 (ip), vehicle: saline with Tween-80
[16] = dose: 240.0 mg/kg/injection, schedule: Q01DX005 (ip), vehicle: saline with Tween-80
[17] = dose: 50.0 mg/kg/injection, schedule: Q01DX005 (ip), vehicle: saline with Tween-80
[18] = dose: 100.0 mg/kg/injection, schedule: Q01DX005 (ip), vehicle: saline with Tween-80
[19] = dose: 200.0 mg/kg/injection, schedule: Q01DX005 (ip), vehicle: saline with Tween-80

## Cc1ccnc(N=Cc2ccccc2O)c1
[1]
  T/C: 104 % of control
[2]
  T/C: 100 % of control
[3]
  T/C: 100 % of control

## Clc1cc(Cl)c(Cl)nn1
dose: 25.0 mg/kg/injection, schedule: Q01DX009 (ip), vehicle: Klucel (hydroxypropylcellulose) (HPC)
  T/C: 98 % of control
[1]
  T/C: 94 % of control
[2]
  T/C: 92 % of control

## CC1(C)SC(C(NC(=O)Cc2ccccc2)C(=O)O)NC1C(=O)O (stereo unspecified)
[4]
  T/C: 90 % of control
[5]
  T/C: 100 % of control
[6]
  T/C: 104 % of control

## NC1C2CC3CC(C2)CC1(N)C3 (stereo unspecified)
dose: 12.5 mg/kg/injection, schedule: Q01DX009 (ip), vehicle: saline with Tween-80
  T/C: 104 % of control
dose: 25.0 mg/kg/injection, schedule: Q01DX009 (ip), vehicle: saline with Tween-80
  T/C: 102 % of control
[7]
  T/C: 101 % of control and 96 % of control
[8]
  T/C: 99 % of control
[9]
  T/C: 99 % of control

## CC1(C)OP(=O)(O)c2ccccc21
[1]
  T/C: 100 % of control
[2]
  T/C: 100 % of control
[3]
  T/C: 88 % of control

## C(=C/c1cc2ccc(C3=NCCN3)cc2o1)/c1cc2ccc(C3=NCCN3)cc2[nH]1
dose: 50.0 mg/kg/injection, schedule: Q04DX003 (ip), vehicle: suspension in saline
  T/C: 114 % of control
dose: 100.0 mg/kg/injection, schedule: Q04DX003 (ip), vehicle: suspension in saline
  T/C: 158 % of control and 164 % of control
dose: 200.0 mg/kg/injection, schedule: Q04DX003 (ip), vehicle: suspension in saline
  T/C: 298 % of control

## N#CC(C#N)=Cc1ccc(N2CCOCC2)cc1
[10]
  T/C: 90 % of control
[11]
  T/C: 97 % of control
[12]
  T/C: 90 % of control

## O=C(Nc1nc2cccnc2s1)C(F)(F)F
[7]
  T/C: 100 % of control
[8]
  T/C: 97 % of control
[9]
  T/C: 94 % of control

## O=C(NC(Cc1ccccc1)C(=O)O)OCc1ccccc1 (stereo unspecified)
dose: 50.0 mg/kg/injection, schedule: Q01DX005 (ip), vehicle: Klucel (hydroxypropylcellulose) (HPC)
  T/C: 100 % of control
dose: 100.0 mg/kg/injection, schedule: Q01DX005 (ip), vehicle: Klucel (hydroxypropylcellulose) (HPC)
  T/C: 92 % of control
dose: 177.0 mg/kg/injection, schedule: Q01DX009 (ip), vehicle: saline with Tween-80
  T/C: 107 % of control
dose: 200.0 mg/kg/injection, schedule: Q01DX005 (ip), vehicle: Klucel (hydroxypropylcellulose) (HPC)
  T/C: 102 % of control
dose: 266.0 mg/kg/injection, schedule: Q01DX009 (ip), vehicle: saline with Tween-80
  T/C: 109 % of control
[13]
  T/C: 116 % of control

## CCCS(=O)(=O)N/N=C(\C)c1cccs1
[1]
  T/C: 95 % of control
[2]
  T/C: 87 % of control

## COC1OC(CNCCO)C2OC(C)(C)OC12 (stereo unspecified)
dose: 50.0 mg/kg/injection, schedule: Q01DX005 (ip), vehicle: saline + alcohol
  T/C: 100 % of control
dose: 100.0 mg/kg/injection, schedule: Q01DX005 (ip), vehicle: saline + alcohol
  T/C: 100 % of control
dose: 200.0 mg/kg/injection, schedule: Q01DX005 (ip), vehicle: saline + alcohol
  T/C: 100 % of control

## Cc1ccc(NSC(Cl)(Cl)Cl)cc1
dose: 12.5 mg/kg/injection, schedule: Q01DX009 (ip), vehicle: saline
  T/C: 100 % of control
dose: 12.5 mg/kg/injection, schedule: Q01DX009 (ip), vehicle: suspension in saline
  T/C: 100 % of control
dose: 25.0 mg/kg/injection, schedule: Q01DX009 (ip), vehicle: saline
  T/C: 100 % of control
dose: 25.0 mg/kg/injection, schedule: Q01DX009 (ip), vehicle: suspension in saline
  T/C: 100 % of control
[10]
  T/C: 104 % of control and 123 % of control
dose: 50.0 mg/kg/injection, schedule: Q01DX009 (ip), vehicle: suspension in saline
  T/C: 97 % of control
dose: 100.0 mg/kg/injection, schedule: Q01DX009 (ip), vehicle: suspension in saline
  T/C: 87 % of control

## CCn1c2ccc(N(C)C)cc2c2cc(N(C)C)ccc21
[14]
  T/C: 99 % of control
[15]
  T/C: 105 % of control
[16]
  T/C: 102 % of control

## O=C1CS(=O)(=O)C(c2ccccc2)N1N1C(=O)CS(=O)(=O)C1c1ccccc1 (stereo unspecified)
[17]
  T/C: 104 % of control
[18]
  T/C: 104 % of control
[19]
  T/C: 92 % of control

## O=C(N[C@@H](CO)[C@H]1CC(Br)=NO1)C(Cl)(Cl)Cl
dose: 12.5 mg/kg/injection, schedule: Q01DX005 (ip), vehicle: distilled water + Tween-80
  T/C: 100 % of control
dose: 25.0 mg/kg/injection, schedule: Q01DX005 (ip), vehicle: distilled water + Tween-80
  T/C: 102 % of control
dose: 50.0 mg/kg/injection, schedule: Q01DX005 (ip), vehicle: distilled water + Tween-80
  T/C: 105 % of control
dose: 100.0 mg/kg/injection, schedule: Q01DX005 (ip), vehicle: distilled water + Tween-80
  T/C: 107 % of control

## CC1(Br)CN([C@@H](C(=O)O)c2ccccc2)C1=O (stereo partly specified)
dose: 50.0 mg/kg/injection, schedule: Q04DX002 (ip), vehicle: saline with Tween-80
  T/C: 102 % of control
dose: 100.0 mg/kg/injection, schedule: Q04DX002 (ip), vehicle: saline with Tween-80
  T/C: 96 % of control
dose: 200.0 mg/kg/injection, schedule: Q04DX002 (ip), vehicle: saline with Tween-80
  T/C: 93 % of control
dose: 400.0 mg/kg/injection, schedule: Q04DX002 (ip), vehicle: saline with Tween-80
  T/C: 102 % of control

## OC(CN1CCOCC1)c1ccccn1 (stereo unspecified)
[10]
  T/C: 95 % of control
[11]
  T/C: 92 % of control
[12]
  T/C: 92 % of control

## Cc1c(-c2ccc(Cl)cc2)n[nH]c1-c1[nH]nc(-c2ccc(Cl)cc2)c1C
[14]
  T/C: 105 % of control
[15]
  T/C: 105 % of control
[16]
  T/C: 94 % of control

## Cc1nc2c(Cl)cc(Cl)cc2c(=O)n1CC(=O)NNC(N)=S
[7]
  T/C: 97 % of control
[8]
  T/C: 94 % of control
[9]
  T/C: 93 % of control

## CCCCS(=O)CCC(N)C(=O)O (stereo unspecified)
[14]
  T/C: 98 % of control
[15]
  T/C: 94 % of control
[16]
  T/C: 93 % of control

## CCSC(=O)OCC(F)([N+](=O)[O-])[N+](=O)[O-]
dose: 100.0 mg/kg/injection, schedule: Q04DX003 (ip), vehicle: saline
  T/C: 108 % of control
dose: 200.0 mg/kg/injection, schedule: Q04DX003 (ip), vehicle: saline
  T/C: 100 % of control
dose: 400.0 mg/kg/injection, schedule: Q04DX003 (ip), vehicle: saline
  T/C: 104 % of control

## O=C(COC1CCCCC1)OC1CCCCC1
dose: 50.0 mg/kg/injection, schedule: Q04DX003 (ip), vehicle: saline with Tween-80
  T/C: 100 % of control
[4]
  T/C: 100 % of control

## Cc1cccc(NC(=S)NNc2nnc(-c3ccccc3)c(-c3ccccc3)n2)c1
[17]
  T/C: 90 % of control
[18]
  T/C: 99 % of control
[19]
  T/C: 100 % of control

## NC(=O)N=Nc1cccc(Cl)c1
[17]
  T/C: 98 % of control
[18]
  T/C: 104 % of control
[19]
  T/C: 104 % of control

## COc1ccc2cc(O)ccc2c1
[8]
  T/C: 113 % of control
[9]
  T/C: 100 % of control
[13]
  T/C: 90 % of control

## CCOC(OCC)c1c(Cl)cccc1Cl
[8]
  T/C: 118 % of control
[4]
  T/C: 100 % of control
[9]
  T/C: 118 % of control
[5]
  T/C: 100 % of control
[6]
  T/C: 90 % of control

## CC(C)(O)/C=C/C(=O)[C@](C)(O)[C@H]1[C@H](O)C[C@@]2(C)[C@@H]3CC=C4[C@@H](C=C(O)C(=O)C4(C)C)[C@]3(C)C(=O)C[C@]12C
dose: 0.25 mg/kg/injection, schedule: Q01DX005 (ip), vehicle: water
  T/C: 112 % of control
dose: 0.25 mg/kg/injection, schedule: Q01DX010 (ip), vehicle: saline
  T/C: 100 % of control
dose: 0.5 mg/kg/injection, schedule: Q01DX005 (ip), vehicle: water
  T/C: 100 % of control
dose: 0.5 mg/kg/injection, schedule: Q01DX010 (ip), vehicle: saline
  T/C: 104 % of control
dose: 1.0 mg/kg/injection, schedule: Q01DX005 (ip), vehicle: water
  T/C: 105 % of control
dose: 1.0 mg/kg/injection, schedule: Q01DX010 (ip), vehicle: saline
  T/C: 109 % of control
dose: 2.0 mg/kg/injection, schedule: Q01DX005 (ip), vehicle: water
  T/C: 105 % of control
